Test system: SH-SY5Y cells
Experiment: Autophagic flux with tandem reporter GFP-LC3-RFP-LC3Δ
Type: cell-based, human
Details: Aβ 1 µM, 24 h; compared to control cells; n = 6, N = 3
Protocol: SH-SY5Y cells were transfected with either GFP-LC3-LC3Δ-RFP or mCherry-GFP-LC3B tandem constructs (0.5 μg/well +1 µl transfection reagent − 24 well plate) with Lipofectamine 2000 (Life Technologies, 11668019) in OptiMEM (Life Technologies, 11058021) in DMEM/F-12, FCS^− PS^− media. After 8 h, FCS^− PS^− media was changed to normal culture media, respectively. Transfection efficiency was around 50–60% in all analyzed coverslips.
SH-SY5Y cells seeded on D1, were treated with Aβ variants (1 μM) on D3 in DMEM/F-12 media without serum and antibiotics. Control treatment included treatment with equal volume of 10 mM NaOH solution used for preparing the Aβ stock solutions, in respective cell culture medium. […]
All images were processed and analyzed using Fiji ImageJ software. […] Distance from the plaque core (Figure 1B) was measured using the concentric circles plugin module. Fluorescence intensity of the green channel (Figure S3A-B), and the number of neurons positive for Aβ signals (Figure S3-D) were quantified using the processing module of Keyence software. […] Intensity of green and red channel for a particular ROI was calculated and ratios of the individual values were computed (Figure 6B and S7A). For computing the number of mCherry^+GFP^± vesicles or per cell (Figure 6D and S7B), cell outline was drawn manually and number of vesicles per cell (nucleus count – DAPI) was calculated. […]

non-phosphorylated amyloid-β [npAβ, reference compound]
RFP:GFP ratio (autophagic flux): tended to increase

— PMC10761119, “Phosphorylation-state dependent intraneuronal sorting of Aβ differentially impairs autophagy and the endo-lysosomal system” (Autophagy, 2023)
